Here are results for one molecule from patent publication US20190209576A1 (AI Therapeutics, Inc., priority 2014, published 2019).

As usually defined, the EC50 is the concentration that produces a half-maximal response. A low value points to an effect from little substance.

What all share (type): cell-based
In assay [1] the test system is colon cancer cell lines. The assay is described as follows: LAM-002 sensitivity (EC90) correlated with SNX10 expression. To be noted: 10 point dose response. From the text: Expression profiles were obtained from the public databases CCLE (Barretina, Caponigro, Stransky et al. The Cancer Cell Line Encyclopedia enables predictive modelling of anticancer drug sensitivity. Nature. 2012 Mar. 28; 483(7391):603-7) and COSMIC (Forbes SA1, Beare D2, Gunasekaran P2, et al. COSMIC: exploring the world's knowledge of somatic mutations in human cancer. Nucleic Acids Res. 2015 January; 43 (Database issue):D805-11). R statistical package (R Development Core Team (2008). R: A language and environment for statistical computing. R Foundation for Statistical Computing, Vienna, Austria. ISBN 3-900051-07-0) was used for the normalization of expression and the correlation analysis.
To determine LAM-002 sensitivity in colon cancer cell lines, the EC90 was calculated using a 10 point dose response as described above for EC50 determination. […] These findings support SNX10 expression as a predictive biomarker for LAM-002 sensitivity in colon cancer cells.

Assay [2] concerns RKO cells. The assay is described as follows: Cell viability (CellTiterGlo), single agent, 120 h. To be noted: Homo sapiens, BRAF Mutant (V600E), 5 day assay. Here is the method:
(§1) For drug studies, HCT116, HT-29, RKO, HCT-15, SW1116, SW480 and SW620 cells were seeded at a density of 750, 8000, 300, 480, 1600, 2000, and 2000 cells per well, respectively, into 96 well plates in a final volume of 50 μL.
(§2) The apilimod used in these studies was apilimod dimesylate.
(§3) All drug dilutions were made up as a 2× stock and 50 μL added to appropriate wells. Cells were treated for 120 h before viability was assessed using CellTiterGlo® (Promega) where the relative luminescence of untreated cells was set to 100% viability and each drug concentration expressed as a percentage of untreated cells. EC50 values were determined using GraphPad Prism (GraphPad Software, Inc). Briefly, raw data was log transformed and then analyzed using nonlinear regression (curve fit) where the data were constrained (bottom=0, top=100).
For orientation: ATP-based viability assays read luminescence as a measure of living cells.

For assay [3], the system named is SW1116 cells. The assay is described as follows: Cell viability (CellTiterGlo), single agent, 120 h. To be noted: Homo sapiens, SW 1116, 120 h; SW1116, BRAF WT, 5 day assay. Here is the method:
as §1, §2, §3

In assay [4] the test system is HCT-15 cells. The assay is described as follows: Cell viability (CellTiterGlo), single agent, 120 h. To be noted: Homo sapiens, HCT-15, BRAF WT, 5 day assay. Here is the method: as §1, §2, §3
Assay [5] deals with HCT116 cells. Kind of assay: Cell viability (CellTiterGlo), single agent, 120 h. To be noted: Homo sapiens, HCT-116, 120 h; HCT116, BRAF WT, 5 day assay. As to the method: as §1, §2, §3
The subject of assay [6] is HT-29 cells. The assay is described as follows: Cell viability (CellTiterGlo), single agent, 120 h. To be noted: Homo sapiens, HT-29, BRAF Mutant (V600E), 5 day assay. Here is the method: as §1, §2, §3
Assay [7] deals with SW480 cells. Kind of assay: Cell viability (CellTiterGlo), single agent, 120 h. To be noted: Homo sapiens, SW480, BRAF WT, 5 day assay. As to the method:
as §1, §2, §3

Assay [8] concerns SW620 cells. The assay is described as follows: Cell viability (CellTiterGlo), single agent, 120 h. To be noted: Homo sapiens, SW-620, 120 h; SW620, BRAF WT, 5 day assay. Here is the method: as §1, §2, §3

As to `Cc1cccc(/C=N/Nc2cc(N3CCOCC3)nc(OCCc3ccccn3)n2)c1` [Apilimod], the “correlation between SNX10 expression and LAM-002 sensitivity (EC90)” value in assay [1] is “colon cancer cells expressing higher levels of SNX10 are the most sensitive to LAM-002”. For the same molecule, the 50% effective concentration (EC50) amounted to 0.052 µM in assay [2]; 0.012 µM in assay [3]; 0.015 µM in assay [4]; 0.01 µM in assay [5]; 0.019 µM in assay [6]; 0.024 µM in assay [7]. Besides, the 50% effective concentration (EC50) in assay [8] was 0.009 µM.
